Experimental findings from patent US20140274981A1, “PHARMACEUTICAL COMPOSITION OF S-KETAMINE HYDROCHLORIDE” (JANSSEN PHARMACEUTICA NV, priority 2013, published 2014) are described below.

In one assay the test system is A. brasiliensis. The assay is described as follows: Full AET challenge test. To be noted: original spike 10^5-10^6 CFU/ml, 28 days at room temperature.
The next assay deals with C. albicans. The assay is described as follows: Full AET challenge test. To be noted: original spike 10^5-10^6 CFU/ml, after 28 days.
For another assay, the system named is P. aeruginosa. Put plainly: Full AET challenge test. The note with it: original spike 10^5-10^6 CFU/ml, after 28 days.
The next assay has as its system S. aureus. The assay is described as follows: Full AET challenge test. The note with it: original spike 10^5-10^6 CFU/ml, after 28 days.
The subject of a further assay is E. coli. The assay is described as follows: Full AET challenge test. To be noted: original spike 10^5-10^6 CFU/ml, after 28 days.
Another assay deals with M. luteus. The assay is described as follows: Full AET challenge test. The note with it: original spike 10^5-10^6 CFU/ml, after 28 days.
A further assay deals with S. haemolyticus. The assay is described as follows: Microbial challenge test (Example 1). The note with it: original spike 10^5-10^6 CFU/ml.

`CN[C@]1(c2ccccc2Cl)CCCCC1=O.Cl` [S-ketamine hydrochloride, (S)-2-(2-chlorophenyl)-2-(methylamino)cyclohexanone hydrochloride]: the “Effect on the original spike (in words)” value in the assay on A. brasiliensis is given as “some inhibitory activity”; with C. albicans, “strong antimicrobial properties”; in the assay with P. aeruginosa, “strong antimicrobial properties”; with S. aureus, “strong antimicrobial properties”; with E. coli, “strong antimicrobial properties”; in the assay on M. luteus, “strong antimicrobial properties”. For the same molecule, the “Effect on the original spike (in words)” value in the assay on S. haemolyticus is “strong antimicrobial properties”.
